A short description of data set [1]: Water solubility of cross-linkers.
Data set [2] is described as follows: Reversibility of cross-linking by means of pH-change. Format: physicochemical. Particulars: gel of 3.9 g Example 2.1 at pH 7 crosslinked with 0.075 g OBP, after adding 2 ml hydrochloric acid (10 w %). As for the experimental part:
3.9 g Example 2.1 at 7 pH stained with rhodamine B were crosslinked with 0.075 g OBP dissolved in 1 mL water at RT. The cross-linking reaction produces within a few seconds a solid gel. After adding 2 ml of hydrochloric acid (10 w %) it takes about 2 h till the gel is completely liquefied. When setting the pH back to neutral by adding caustic the gel is instantaneously formed again.

A short description of data set [3]: Oscillatory shear rheology of PVAm hydrogels cross-linked with OBP. Format: physicochemical. As for the experimental part: To investigate the mechanical properties of the hydrogel and to confirm the formation of cross-linking points from a mechanical point of view, dynamic rheological measurements were performed. Hydrogel samples with a varying degree of cross-linking (DC=n(OBP)/n(Am) [mol %]) in the range of 1-5 mol % and a water content of 94 wt % were analyzed under oscillatory shear. […] All samples show an elastic response over the entire frequency range, with G′ distinctly exceeding G″ by two magnitudes. Additionally, a frequency independent behavior for G′ is observed.
Rheological properties of the hydrogels were analyzed via oscillatory shear experiments on the strain-controlled rotational rheometer Ares G2 (TA Instruments, Eschborn, Germany). Hydrogel samples with a varying degree of cross-linking (DC) between 1 and 5 mol % (DC=n(OBP)/n(Am) [mol %]) were prepared in a cylindrical PTFE mold with a diameter of ˜30 mm to obtain uniform disc-shaped specimens. The cross-linking agent (OBP) was first dissolved in 1 ml H2O and then mixed with 3 ml of the 6.6 wt % PVAm solution. The mold was sealed and the cross-linking reaction was allowed to proceed overnight.
The test geometry was a 30 mm diameter plate made from aluminum. The geometry was lowered until a constant axial force of 0.5 N was applied to the sample and the temperature was controlled to 25±0.1° C. by a Peltier element (Advanced Peltier System, TA Instruments). First, an oscillatory strain sweep was performed with a constant frequency of f=1 Hz by varying the strain from γ0=0.01-1000% to determine the linear viscoelastic (LVE) regime. The values at a strain of γ0=0.1% were chosen to be representative for the LVE regime. Subsequently, frequency sweeps were employed at a fixed strain of 0.1% while the frequency was varied from 0.03 to 100 Hz. To study the self-healing properties, the sample with DC=3 mol % was cut and subsequently cured in a sealed mold at 70° C. for 3 h.

Data on three molecules can be found in patent publication US20210395406A1, “REVERSIBLE CROSS-LINKING SYSTEM FOR POLYVINYLAMINES” (SOLENIS TECHNOLOGIES, L.P., priority 2020, published 2021).

Molecules are shown by their SMILES. Converted amounts (≈) assume the structure as drawn. Where a name gives a salt, the structure may show the parent alone.

In general, solubility refers to the concentration that dissolves in the medium under given conditions. Higher therefore signals much dissolved substance. `O=C1CCN(C(=O)c2ccc(C(=O)N3CCC(=O)CC3)cc2)CC1` [Example 1.2, 1,1′-Terephthaloylbis(piperidin-4-one)]: the concentration in solution in data set [1] (solubility) came to 0.5 mg/mL (≈ 1.52 mM).

For `O=C1CCN(C(=O)C(=O)N2CCC(=O)CC2)CC1` [Example 1.1, 1,2-bis(4-oxopiperidin-1-yl)ethane-1,2-dione], in data set [2], the “time till the gel is completely liquefied” value is recorded as “about 2 h”. Moreover, the mechanical strength result in data set [3] (PVAm hydrogels cross-linked with OBP, at higher DC values, water content 94 wt %) is on record as “up to 15 kPa”. In addition, the storage modulus in data set [3] (PVAm/OBP hydrogel DC=3 mol %, after first self-healing cycle) is listed as roughly 6 kPa; in data set [3] (PVAm/OBP hydrogel DC=3 mol %, before first self-healing cycle), “approximately 7 kPa”. For the same molecule, the “decrease of G′” value in data set [3] (PVAm/OBP hydrogel DC=3 mol %, cut and measured directly without curing) came to 42%. Moreover, in data set [3] (PVAm/OBP hydrogel DC=3 mol %, first self-healing cycle, cut and cured at 70° C. for 3 h), the “decrease of the storage modulus” value is 14%. This molecule returned a solubility in data set [1] of 60 mg/mL (≈ 238 mM).

Usually melting point stands for the temperature of the solid-liquid transition. Regarding `O=C1CCN(C(=O)C(=O)N2CCC(=O)CC2)CC1` (as salt: hydrochloride) (hydrate or solvate) [Example 1.1, 1,2-bis(4-oxopiperidin-1-yl)ethane-1,2-dione], the melting point was 174 °C.
